Data reported in US20230365554A1, “SUBSTITUTED PYRROLO-PYRIDINONE DERIVATIVES AND THERAPEUTIC USES THEREOF” (The Broad Institute, Inc., priority 2020, published 2023).
“And” between values parts separate entries of the source, which are not always exact repeats. Equal values may be shown once.

How the values were obtained:
human CSNK1D = human CSNK1D (Homo sapiens (Human), UniProt P48730); assay: CSNK1D assay (ADP-Glo, 1 μM ATP); assay type: biochemical; conditions: median, Table 2, read-out: CSNK1D IC50 [mol/l] (median)
How it was run: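 GST-tagged full-length human CSNK1D (baculovirus/insect cell; typically about 0.5 ng/μL) preincubated with compound 15 min, then reacted 30 min at 22 °C with 1 μM ATP and 30 μM biotinylated peptide (final) in HEPES pH 7.5 buffer. ADP quantified by ADP-Glo luminescence; data normalised to no-inhibitor and no-enzyme controls.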

[1] = biological target: wild-type Epidermal Growth Factor Receptor (EGFR) (Homo sapiens (Human), UniProt P00533); assay: WT-EGFR kinase assay (TR-FRET, 2 mM ATP); assay type: biochemical; conditions: median or individual measurements, Table 3, read-out: EGFR Wildtyp-2mM ATP IC50 [mol/l] (median)
How it was run: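 GST-fused human EGFR (R669–A1210, Sf9-expressed) pre-incubated 15 min with compound, then reacted 30 min at 22° C with 2 mM ATP and 1 μM biotinylated peptide in Hepes pH 7.0 buffer. Phosphopeptide detected by HTRF (Tb anti-phosphotyrosine/streptavidin-XL665, 665/620 nm ratio); normalised to no-inhibitor and no-enzyme controls.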

Chain of human CSNK1D (P48730 whole entry): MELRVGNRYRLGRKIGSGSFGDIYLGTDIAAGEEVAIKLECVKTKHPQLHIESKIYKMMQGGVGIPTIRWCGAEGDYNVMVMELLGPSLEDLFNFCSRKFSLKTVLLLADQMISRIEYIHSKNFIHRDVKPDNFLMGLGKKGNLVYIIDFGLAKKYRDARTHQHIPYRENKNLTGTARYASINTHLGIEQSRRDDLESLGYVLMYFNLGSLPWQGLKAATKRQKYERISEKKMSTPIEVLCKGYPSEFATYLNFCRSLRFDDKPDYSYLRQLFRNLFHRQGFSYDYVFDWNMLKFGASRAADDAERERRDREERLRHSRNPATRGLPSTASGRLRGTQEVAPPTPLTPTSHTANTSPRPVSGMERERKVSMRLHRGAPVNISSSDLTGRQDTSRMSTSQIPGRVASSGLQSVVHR
Chain of wild-type Epidermal Growth Factor Receptor (EGFR) (P00533 669-1210): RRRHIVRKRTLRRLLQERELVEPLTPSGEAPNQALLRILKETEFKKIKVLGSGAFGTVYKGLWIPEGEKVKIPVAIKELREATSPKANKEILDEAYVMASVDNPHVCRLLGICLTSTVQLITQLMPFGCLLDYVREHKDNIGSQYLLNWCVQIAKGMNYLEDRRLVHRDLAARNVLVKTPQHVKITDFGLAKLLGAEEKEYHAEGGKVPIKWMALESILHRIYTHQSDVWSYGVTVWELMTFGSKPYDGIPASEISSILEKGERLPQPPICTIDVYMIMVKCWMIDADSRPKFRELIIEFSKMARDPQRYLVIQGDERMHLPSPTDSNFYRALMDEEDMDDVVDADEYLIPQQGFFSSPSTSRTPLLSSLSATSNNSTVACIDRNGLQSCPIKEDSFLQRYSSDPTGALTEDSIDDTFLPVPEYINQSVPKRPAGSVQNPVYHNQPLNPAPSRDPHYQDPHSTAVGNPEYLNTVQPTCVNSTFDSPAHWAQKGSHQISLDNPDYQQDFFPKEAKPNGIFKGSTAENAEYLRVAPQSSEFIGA

Compound | IC50 (human CSNK1D) | IC50 [1]
CC1CN(C)C(=O)c2c1[nH]c(-c1ccnc(NC(=O)Cc3ccc(F)cc3)c1)c2Nc1ccccc1 (single isomer, unassigned; (-)) [Example 7, (−)-N-{4-[3-anilino-5,7-dimethyl-4-oxo-4,5,6,7-tetrahydro-1H-pyrrolo[3,2-c]pyridin-2-yl]pyridin-2-yl}-2-(4-fluorophenyl)acetamide] | 11 nM | 1300 nM
O=C1N[C@@H]2CCC[C@@H]2c2[nH]c(-c3ccnc(NC(=O)C(CC(F)F)c4ccc(F)cc4)c3)c(Nc3ccccc3)c21 (single isomer, unassigned; (-)) [Example 23, (−)-(2R or S)—N-{4-[cis-3-anilino-4-oxo-1,4,5,5a,6,7,8,8a-octahydrocyclopenta[b]pyrrolo[2,3-d]pyridin-2-yl]pyridin-2-yl}-4,4-difluoro-2-(4-fluorophenyl)butanamide] | 38 nM | 13000 nM
O=C1N[C@@H]2CCC[C@@H]2c2[nH]c(-c3ccnc(NC(=O)C(CC(F)F)c4ccc(F)cc4)c3)c(Nc3ccccc3)c21 (single isomer, unassigned; (-)) [Example 24, (−)-(2R or S)—N-{4-[cis-3-anilino-4-oxo-1,4,5,5a,6,7,8,8a-octahydrocyclopenta[b]pyrrolo[2,3-d]pyridin-2-yl]pyridin-2-yl}-4,4-difluoro-2-(4-fluorophenyl)butanamide] | 24 nM | 310 nM
CCC1CNC(=O)c2c1[nH]c(-c1ccnc(NC(=O)C(CC(F)F)c3ccc(F)cc3)c1)c2Nc1ccccc1 (stereo not drawn) [Example 4, N-{4-[3-anilino-7-ethyl-4-oxo-4,5,6,7-tetrahydro-1H-pyrrolo[3,2-c]pyridin-2-yl]pyridin-2-yl}-4,4-difluoro-2-(4-fluorophenyl)butanamide] | 16 nM | 1200 nM
CN1CC(CC(F)(F)F)c2[nH]c(-c3ccnc(NC(=O)C(CC(F)F)c4ccc(F)cc4)c3)c(Nc3ccccc3)c2C1=O (stereo not drawn) [Example 17, N-{4-[3-anilino-5-methyl-4-oxo-7-(2,2,2-trifluoroethyl)-4,5,6,7-tetrahydro-1H-pyrrolo[3,2-c]pyridin-2-yl]pyridin-2-yl}-4,4-difluoro-2-(4-fluorophenyl)butanamide] | 17 nM | > 20000 nM and > 5700 nM and 3700 nM and 3200 nM
Cn1cc(CC2CC2)c2[nH]c(-c3ccnc(NC(=O)Cc4ccc(F)cc4)c3)c(Nc3ccccc3)c2c1=O [Example 32, N-{4-[3-anilino-7-(cyclopropylmethyl)-5-methyl-4-oxo-4,5-dihydro-1H-pyrrolo[3,2-c]pyridin-2-yl]pyridin-2-yl}-2-(4-fluorophenyl)acetamide] | 36 nM | 860 nM
Cc1ccccc1Nc1c(-c2ccnc(NC(=O)Cc3ccc(F)cc3)c2)[nH]c2c(CC(F)(F)F)cn(C)c(=O)c12 [Example 33, 2-(4-fluorophenyl)-N-{4-[5-methyl-3-(2-methylanilino)-4-oxo-7-(2,2,2-trifluoroethyl)-4,5-dihydro-1H-pyrrolo[3,2-c]pyridin-2-yl]pyridin-2-yl}acetamide] | 6.2 nM | 7 nM
Cn1cc(CC(F)(F)F)c2[nH]c(-c3ccnc(NC(=O)Cc4ccc(F)cc4)c3)c(Nc3ccccc3)c2c1=O [Example 34, N-{4-[3-anilino-5-methyl-4-oxo-7-(2,2,2-trifluoroethyl)-4,5-dihydro-1H-pyrrolo[3,2-c]pyridin-2-yl]pyridin-2-yl}-2-(4-fluorophenyl)acetamide] | 9.1 nM | 20 nM
Cn1cc(CC(F)F)c2[nH]c(-c3ccnc(NC(=O)Cc4ccc(F)cc4)c3)c(Nc3ccccc3)c2c1=O [Example 45, N-{4-[3-anilino-7-(2,2-difluoroethyl)-5-methyl-4-oxo-4,5-dihydro-1H-pyrrolo[3,2-c]pyridin-2-yl]pyridin-2-yl}-2-(4-fluorophenyl)acetamide] | 9.7 nM | 150 nM
